# Data from ChEMBL document CHEMBL1212927, “Synthesis and structure-activity relationships of novel 8a-aza-8a-homoerythromycin A ketolides” (2010).
# How the values were obtained:
# [1] = test system: Staphylococcus aureus; experiment: Antibacterial activity against inducible macrolide-lincosamide-streptogramin B-resistant Staphylococcus aureus B0538 by agar microdilution method; type: functional
# [2] = test system: Staphylococcus aureus; experiment: Antibacterial activity against constitutive macrolide-lincosamide-streptogramin B-resistant Staphylococcus aureus B0330 by agar microdilution method; type: functional
# [3] = test system: Staphylococcus aureus; experiment: Antibacterial activity against efflux-resistant Staphylococcus aureus B0331 by agar microdilution method; type: functional
# [4] = test system: Streptococcus pneumoniae; experiment: Antibacterial activity against constitutive macrolide-lincosamide-streptogramin B-resistant Streptococcus pneumoniae B0627 by agar microdilution method; type: functional
# [5] = test system: Streptococcus pneumoniae; experiment: Antibacterial activity against efflux-resistant Streptococcus pneumoniae B0326 by agar microdilution method; type: functional
# [6] = test system: Streptococcus pyogenes; experiment: Antibacterial activity against inducible macrolide-lincosamide-streptogramin B-resistant Streptococcus pyogenes B0543 by agar microdilution method; type: functional
# [7] = test system: Streptococcus pyogenes; experiment: Antibacterial activity against constitutive macrolide-lincosamide-streptogramin B-resistant Streptococcus pyogenes B0544 by agar microdilution method; type: functional
# [8] = test system: Streptococcus pyogenes; experiment: Antibacterial activity against efflux-resistant Streptococcus pyogenes B0545 by agar microdilution method; type: functional
# [9] = test system: Moraxella catarrhalis; experiment: Antibacterial activity against Moraxella catarrhalis B0324 by agar microdilution method; type: functional
# [10] = test system: Haemophilus influenzae; experiment: Antibacterial activity against Haemophilus influenzae B0529 by agar microdilution method; type: functional
# [11] = test system: Staphylococcus aureus; experiment: Antibacterial activity against erythromycin A-susceptible Staphylococcus aureus B0329 by agar microdilution method
# [12] = test system: Streptococcus pneumoniae; experiment: Antibacterial activity against erythromycin-susceptible Streptococcus pneumoniae B0541 by agar microdilution method
# [13] = test system: Streptococcus pyogenes; experiment: Antibacterial activity against erythromycin A-susceptible Streptococcus pyogenes B0542 by agar microdilution method
Structure (SMILES),MIC [1] [µg/mL],MIC [2] [µg/mL],MIC [3] [µg/mL],MIC [4] [µg/mL],MIC [5] [µg/mL],MIC [6] [µg/mL],MIC [7] [µg/mL],MIC [8] [µg/mL],MIC [9] [µg/mL],MIC [10] [µg/mL],MIC [11] [µg/mL],MIC [12] [µg/mL],MIC [13] [µg/mL]
CC[C@H]1OC(=O)[C@H](C)C(=O)[C@H](C)[C@@H](O[C@@H]2O[C@H](C)C[C@H](N(C)C)[C@H]2O)[C@](C)(OCC=Cc2cnc3ccccc3c2)C[C@@H](C)C(=O)[C@H](C)[C@H]2NC(=O)O[C@@]21C [CETHROMYCIN],0.25,> 64,0.25,≤ 0.125,≤ 0.06,≤ 0.06,1,≤ 0.125,≤ 0.125,1,≤ 0.06,≤ 0.06,≤ 0.06
CC[C@H]1OC(=O)[C@H](C)C(=O)[C@H](C)[C@@H](O[C@@H]2O[C@H](C)C[C@H](N(C)C)[C@H]2O)[C@](C)(OCC(O)CNCCc2ccc([N+](=O)[O-])cc2)C[C@@H](C)NC(=O)[C@H](C)[C@@H](O)[C@]1(C)O (mixture of isomers),1,> 64,1,≤ 0.125,0.5,0.25,1,0.25,≤ 0.125,1,≤ 0.125,≤ 0.125,≤ 0.125
CC[C@H]1OC(=O)[C@H](C)C(=O)[C@H](C)[C@@H](O[C@@H]2O[C@H](C)C[C@H](N(C)C)[C@H]2O)[C@](C)(OCC(O)CNCCc2ccccn2)C[C@@H](C)NC(=O)[C@H](C)[C@@H](O)[C@]1(C)O (mixture of isomers),8,> 64,8,8,16,4,32,4,4,32,8,1,0.25
CC[C@H]1OC(=O)[C@H](C)C(=O)[C@H](C)[C@@H](O[C@@H]2O[C@H](C)C[C@H](N(C)C)[C@H]2O)[C@](C)(OCC(O)CNCc2cnc3ccccc3c2)C[C@@H](C)NC(=O)[C@H](C)[C@@H](O)[C@]1(C)O (mixture of isomers),2,> 64,0.5,8,4,4,8,8,2,4,1,≤ 0.125,≤ 0.125
CC[C@H]1OC(=O)[C@H](C)C(=O)[C@H](C)[C@@H](O[C@@H]2O[C@H](C)C[C@H](N(C)C)[C@H]2O)[C@](C)(OCC(O)CN2CCN(c3ccc(C(C)=O)cc3)CC2)C[C@@H](C)NC(=O)[C@H](C)[C@@H](O)[C@]1(C)O (mixture of isomers),4,> 64,2,32,2,8,32,4,4,16,2,1,0.5
CC[C@H]1OC(=O)[C@H](C)C(=O)[C@H](C)[C@@H](O[C@@H]2O[C@H](C)C[C@H](N(C)C)[C@H]2O)[C@](C)(OCC(O)CNCCc2ccccc2)C[C@@H](C)NC(=O)[C@H](C)[C@@H](O)[C@]1(C)O (mixture of isomers),16,> 64,8,8,16,1,16,1,0.5,16,4,0.25,0.5
CC[C@H]1OC(=O)[C@H](C)C(=O)[C@H](C)[C@@H](O[C@@H]2O[C@H](C)C[C@H](N(C)C)[C@H]2O)[C@](C)(OCC(O)CNCCNc2cnc3ccccc3c2)C[C@@H](C)NC(=O)[C@H](C)[C@@H](O)[C@]1(C)O (mixture of isomers),1,> 64,0.25,1,0.25,1,4,0.5,≤ 0.125,1,1,≤ 0.125,≤ 0.125
